The text below walks through data of ChEMBL document CHEMBL4706752 (ACS Med Chem Lett, 2021).

The nature of data set [1]: Decrease in LCN2 gene expression in C57BL/6 mouse model of IL-23 induced acanthosis model of psoriasis at 5 mg/kg, po BID for 10 days by RT-PCR analysis. As to conditions: C57BL/6, po, 240 h, time 10 day. The format is functional.
The nature of data set [2]: Decrease in IL-6 gene expression in C57BL/6 mouse model of IL-23 induced acanthosis model of psoriasis at 10 mg/kg, po BID for 10 days by RT-PCR analysis. The format is functional. As to conditions: C57BL/6, po, 240 h, time 10 day.
Data set [3] in a line: Protein binding in human serum assessed as fraction unbound. The format is ADME, cell-free. As to conditions: read-out: PB.
The next data set addresses Cytochrome P450 2C19 (Homo sapiens, UniProt P33261). Kind of data set: Inhibition of CYP2C19 (unknown origin). Type of data set: ADME.
A short description of data set [4]: Unbound volume of distribution at steady state in cynomolgus monkey at 1 mg/kg, iv. Particulars: in vivo. The format is ADME, organism-based, Macaca fascicularis.
A short description of data set [5]: Decrease in LCN2 gene expression in C57BL/6 mouse model of IL-23 induced acanthosis model of psoriasis at 10 mg/kg, po BID for 10 days by RT-PCR analysis. The format is functional. As to conditions: C57BL/6, po, 240 h, time 10 day.
A short description of data set [6]: AUC in Sprague-Dawley rat at 4 mg/kg, po. The format is ADME, organism-based. On the set-up: dose 4 mg/kg. Particulars: in vivo.
The nature of data set [7]: Cmax in Balb/c mouse at 4 mg/kg, po. The format is ADME, organism-based. On the set-up: route oral, dose 4 mg/kg. Particulars: in vivo.
For the next data set, the system named is Mus musculus. As to the kind of experiment: Suppression of ear thickness in C57BL/6 mouse model of IL-23 induced acanthosis model of psoriasis assessed as AUC of %change in ear thickness at 5 mg/kg, po BID for 10 days measured every other day. The format is functional. As to conditions: time 10 day.
A further data set concerns the target T1, Cytochrome P450 2C8 (Homo sapiens, UniProt P10632).
T1 sequence (P10632 whole entry): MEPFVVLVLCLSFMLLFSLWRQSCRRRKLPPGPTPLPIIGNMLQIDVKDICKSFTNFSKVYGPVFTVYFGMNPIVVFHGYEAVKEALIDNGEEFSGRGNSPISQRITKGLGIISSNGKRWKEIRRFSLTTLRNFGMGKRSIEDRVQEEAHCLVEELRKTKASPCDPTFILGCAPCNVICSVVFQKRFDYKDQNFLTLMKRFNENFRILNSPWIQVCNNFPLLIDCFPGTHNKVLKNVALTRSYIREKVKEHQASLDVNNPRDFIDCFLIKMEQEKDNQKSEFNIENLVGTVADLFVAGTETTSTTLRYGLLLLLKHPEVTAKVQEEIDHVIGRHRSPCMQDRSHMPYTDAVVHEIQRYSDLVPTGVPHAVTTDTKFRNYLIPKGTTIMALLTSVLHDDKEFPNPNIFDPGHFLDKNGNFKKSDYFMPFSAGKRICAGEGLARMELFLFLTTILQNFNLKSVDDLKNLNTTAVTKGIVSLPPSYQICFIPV
Kind of data set: Inhibition of CYP2C8 (unknown origin). Type of data set: ADME.

As usually defined, the inhibition in vivo is the change of the read-out against control, counted positive when it falls. What is called IC50 is the concentration that inhibits the measured activity by half. A word on the AUC: it is concentration integrated over time. By Cmax is commonly meant the maximum level reached in the sampled fluid or tissue.

Sequence of Cytochrome P450 2C19 (P33261 whole entry): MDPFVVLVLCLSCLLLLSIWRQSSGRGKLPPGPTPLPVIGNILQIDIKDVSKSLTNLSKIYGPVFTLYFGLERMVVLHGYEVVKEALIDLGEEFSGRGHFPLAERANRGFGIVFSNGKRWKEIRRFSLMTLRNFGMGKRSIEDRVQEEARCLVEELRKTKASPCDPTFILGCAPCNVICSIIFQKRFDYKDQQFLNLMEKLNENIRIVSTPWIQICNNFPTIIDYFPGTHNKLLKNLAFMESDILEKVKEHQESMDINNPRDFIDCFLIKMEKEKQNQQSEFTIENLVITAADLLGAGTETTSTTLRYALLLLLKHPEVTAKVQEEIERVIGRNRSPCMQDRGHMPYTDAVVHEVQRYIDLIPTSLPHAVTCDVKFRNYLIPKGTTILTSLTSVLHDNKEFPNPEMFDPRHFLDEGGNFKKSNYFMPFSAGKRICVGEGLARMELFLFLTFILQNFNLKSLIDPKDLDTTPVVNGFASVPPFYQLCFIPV

In turn, `C[C@@](O)(CS(C)(=O)=O)C(=O)N[C@@H]1CC[C@@]2(S(=O)(=O)c3ccc(F)cc3)c3ccc(C(F)(C(F)(F)F)C(F)(F)F)nc3CC[C@@H]12` yielded an inhibition in vivo at 5 mg/kg in data set [1] of 62.4%. Further, the inhibition in vivo at 10 mg/kg in [2] is 82.3%; in data set [5], 85.3%. In addition, the fraction unbound in data set [3] is 0.022. Also, the IC50 amounted to 19 µM against Cytochrome P450 2C19 and 7.6 µM at Cytochrome P450 2C8. In data set [4], this compound displayed a fVdss of 2.7 L/kg. This compound registered an AUC in [6] of 44.9 µM·h. Besides, the highest level in data set [7] (Cmax) was 2800 nM. Further, the Activity with Mus musculus is given as 34.4%.
